We go through 13 compounds from PubChem BioAssay (NCI).

Common to all, as to assay: NCI-60 cell line screen, 48 h
For experiment [1], the system named is M14 melanoma.
The test system of experiment [2] is A498 renal.
The test system of experiment [3] is SF-539 CNS.
Experiment [4] relates to 786-0 renal.
The subject of experiment [5] is CCRF-CEM leukemia.
In experiment [6] the test system is NCI/ADR-RES ovarian.
In experiment [7] the test system is MDA-N.
Experiment [8] concerns SK-MEL-28 melanoma.
In experiment [9] the test system is K-562 leukemia.
Experiment [10] relates to U251 CNS.
The subject of experiment [11] is TK-10 renal.

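How tested: cells in 96-well plates exposed to compound for 48 hours at five concentrations. TGI marks complete inhibition of growth.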 Some results are limits rather than exact numbers.

As for `NC(=O)C(=CNC(=S)Nc1cccc(C(F)(F)F)c1)C(N)=O`, the TGI in experiment [1], in [2], in experiment [3], in [4], in experiment [5] and in experiment [6] was above 100 µM each time. In addition, the TGI in [7], in experiment [8], in [9], in experiment [10] and in experiment [11] was above 100 µM in each case.

On to `CCCCC(=O)Nc1ccc2c(C)cc(-c3ccc(-c4cc(-c5ccc(C)cc5)cc(-c5ccc(-c6cc(C)c7ccc(NC(=O)CCCC)nc7n6)cc5)n4)cc3)nc2n1`, for which the TGI in experiment [1], in experiment [2], in experiment [4], in experiment [5], in experiment [6] and in [7] was above 100 µM throughout. In addition, the TGI in experiment [8], in experiment [9], in experiment [10] and in [11] was above 100 µM throughout.

Consider `N#Cc1c(O)c2ccccc2[nH]c1=O`, for which the TGI in experiment [1], in experiment [2], in experiment [3], in [4], in experiment [5] and in experiment [6] was above 100 µM throughout. Moreover, the TGI in experiment [7], in experiment [8], in experiment [9], in [10] and in experiment [11] was above 100 µM each time.

Take `CN(CCCn1ccnc1[N+](=O)[O-])CCCn1ccnc1[N+](=O)[O-]`: the TGI in experiment [1], in experiment [2], in [3], in experiment [4], in [5] and in experiment [6] was above 100 µM in each case. The TGI in experiment [7], in [8], in experiment [9], in experiment [10] and in experiment [11] was above 100 µM in each case.

For the compound `CSc1c(C#N)c(S)[nH]c(=O)c1C#N`, the TGI in experiment [1] was above 100 µM; in [2] it was 98 µM; in [3], above 100 µM; in [4] it was above 100 µM; in experiment [5], above 100 µM; in experiment [6], above 100 µM. Further, the TGI in experiment [7], in experiment [8], in experiment [9], in [10] and in experiment [11] was above 100 µM in each case.

`O=C1CCCc2ccc3c(c21)CC1(Cc2ccccc2C1)C3`: the TGI in [1] was above 100 µM; in [2], above 100 µM; in experiment [3], above 100 µM; in experiment [4] it was above 100 µM; in experiment [6], above 100 µM; in experiment [7], 67.2 µM. The figures for the TGI in experiment [9], in experiment [10] and in [11] were 30 µM, above 100 µM and above 100 µM, respectively.

For `O=Nc1c(O)cc(Nc2cccnc2)c2ccccc12`, the TGI in experiment [1] is above 100 µM; in experiment [2], above 100 µM; in [3], above 100 µM; in experiment [4], above 100 µM; in [5] it was 26.2 µM; in [6], 65.1 µM. The TGI was 76.6 µM in experiment [7], 58.8 µM in [9], above 100 µM in experiment [10] and above 100 µM in experiment [11].

With `CCCC(=O)NC(Nc1ccc(S(=O)(=O)Nc2ccc(OC)nn2)cc1)(C(F)(F)F)C(F)(F)F`, the TGI in experiment [1], in experiment [2], in experiment [3], in experiment [4], in experiment [5] and in [6] was above 100 µM throughout. The TGI in experiment [7], in experiment [8], in [9], in experiment [10] and in experiment [11] was above 100 µM each time.

As to `COc1ccc(/C=C/C(=O)c2ccc(OC(=O)/C=C/c3ccccc3)cc2)cc1`, the TGI was above 100 µM in experiment [1]; above 73.4 µM in experiment [2]; above 53.5 µM in [3]; 52.8 µM in experiment [4]; 21.5 µM in experiment [5]; above 100 µM in experiment [6]. Besides, the TGI in [7], in experiment [8], in [9], in experiment [10] and in experiment [11] was above 100 µM each time.

As to `COc1cccc(/C=C\c2ccc(O)cc2)c1`, the TGI in experiment [1] came out at 63.5 µM; in [2], 69.8 µM; in [3] it was 53.1 µM; in [4] it was 49.2 µM; in experiment [5], 1.22 µM; in [6], 31.7 µM. In addition, the TGI in [7] was above 100 µM; in [8], above 100 µM; in [9] it was above 50.4 µM; in experiment [10], above 57.5 µM; in experiment [11] it was above 100 µM.

For the compound `COc1cc2ccc1OCc1cccc(n1)COc1ccc(cc1OC)C=NCCNCCN=C2`, the TGI in [1], in experiment [2], in [3], in experiment [4], in [6] and in experiment [7] was above 100 µM in each case. Also, the TGI in [8], in experiment [9], in [10] and in [11] was above 100 µM in each case.

Turning to `CCCCOC(=O)c1cc(C(=CCC[C@H]2CC[C@@]3(C)[C@@H](CC[C@@H]4[C@@H]3CC[C@]3(C)[C@@H](C(C)CCCC(C)C)CC[C@@H]43)C2)c2cc(Cl)c(O)c(C(=O)OCCCC)c2)cc(Cl)c1O` (some centres not stated), the TGI in [2] was above 50 µM; in experiment [4], above 50 µM; in experiment [5] it was above 50 µM; in experiment [6], above 50 µM; in experiment [7], above 50 µM; in experiment [9] it was above 5 µM. Moreover, the TGI in experiment [10] was above 50 µM.

On to `CN(C)c1ccc(/C=C/c2cc(-c3ccccc3)[n+](C)n2-c2ccccc2)cc1`, for which the TGI in experiment [1] is above 34.7 µM; in experiment [2] it was 14.5 µM; in experiment [3], 29 µM; in experiment [4], 23 µM; in experiment [6] it was above 100 µM; in experiment [7] it was 13.6 µM. The results for the TGI in experiment [8], in [10] and in [11] were above 34.6 µM, above 33.8 µM and 30.5 µM, respectively.
